Results as given in patent EP2987533B1, “7-substituted piperazin-1-yl fluoroquinolone compounds, their use in the treatment of cancer, pharmaceutical compositions and a method for preparation” (priority 2014, dated 2016).

Key:
Assay type in all cases: cell-based
HCT-116 [1] = assay: NCI one-dose SRB growth assay; conditions: Homo sapiens; HCT-116 (Colon Cancer), 10^-5 M, 48 h; read-out: % Growth Inhibition (GI %)
In short: (§1)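 Tumor cell cultures were treated with the compound at 10^-5M and kept for 48 h before sulforhodamine B endpoint measurement. Data represent growth of treated cells as a percentage of untreated controls.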

NCI-H23 = assay: NCI one-dose SRB growth assay; conditions: Homo sapiens; NCI-H23 (Non-Small Cell Lung Cancer), 10^-5 M, 48 h; read-out: % Growth Inhibition (GI %)
In short: as §1

ACHN = assay: NCI one-dose SRB growth assay; conditions: Homo sapiens; ACHN (Renal Cancer), 10^-5 M, 48 h; read-out: % Growth Inhibition (GI %)
In short: as §1

SF-539 = assay: NCI one-dose SRB growth assay; conditions: Homo sapiens; SF-539 (CNS Cancer), 10^-5 M, 48 h; read-out: % Growth Inhibition (GI %)
In short: as §1

TK-10 [2] = assay: NCI one-dose SRB growth assay; conditions: Homo sapiens; TK-10 (Renal Cancer), 10^-5 M, 48 h; read-out: % Growth Inhibition (GI %)
SW-620 = assay: NCI one-dose SRB growth assay; conditions: Homo sapiens; SW-620 (Colon Cancer), 10^-5 M, 48 h; read-out: % Growth Inhibition (GI %)
UACC-62 = assay: NCI one-dose SRB growth assay; conditions: Homo sapiens; UACC-62 (Melanoma), 10^-5 M, 48 h; read-out: % Growth Inhibition (GI %)
In short: as §1

NCI/ADR-RES [3] = assay: NCI one-dose SRB growth assay; conditions: Homo sapiens; NCI/ADR-RES (Ovarian Cancer), 10^-5 M, 48 h; read-out: % Growth Inhibition (GI %)
In short: as §1

HT29 = assay: NCI one-dose SRB growth assay; conditions: Homo sapiens, HT-29; HT29 (Colon Cancer), 10^-5 M, 48 h; read-out: % Growth Inhibition (GI %)
In short: as §1

MALME-3M = assay: NCI one-dose SRB growth assay; conditions: Homo sapiens; MALME-3M (Melanoma), 10^-5 M, 48 h; read-out: % Growth Inhibition (GI %)
In short: as §1

DU-145 = assay: NCI one-dose SRB growth assay; conditions: Homo sapiens; DU-145 (Prostate Cancer), 10^-5 M, 48 h; read-out: % Growth Inhibition (GI %)
In short: as §1

MCF7 = assay: NCI one-dose SRB growth assay; conditions: Homo sapiens; MCF7 (Breast Cancer), 10^-5 M, 48 h; read-out: % Growth Inhibition (GI %)
In short: as §1

CAKI-1 = assay: NCI one-dose SRB growth assay; conditions: Homo sapiens; CAKI-1 (Renal Cancer), 10^-5 M, 48 h; read-out: % Growth Inhibition (GI %)
In short: as §1

SK-MEL-28 = assay: NCI one-dose SRB growth assay; conditions: Homo sapiens; SK-MEL-28 (Melanoma), 10^-5 M, 48 h; read-out: % Growth Inhibition (GI %)
In short: as §1

PC-3 = assay: NCI one-dose SRB growth assay; conditions: Homo sapiens; PC-3 (Prostate Cancer), 10^-5 M, 48 h; read-out: % Growth Inhibition (GI %)
In short: (§2)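 Growth percentage versus untreated controls was derived from SRB protein-dye absorbance after cells were incubated 48 h with test compound at a single 10^-5M dose.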

MDA-MB-435 = assay: NCI one-dose SRB growth assay; conditions: Homo sapiens; MDA-MB-435 (Melanoma), 10^-5 M, 48 h; read-out: % Growth Inhibition (GI %)
In short: as §1

PRMI-8226 = assay: NCI one-dose SRB growth assay; conditions: Homo sapiens; PRMI-8226 (Leukemia), 10^-5 M, 48 h; read-out: % Growth Inhibition (GI %)
In short: as §2

NCI/ADR-RES [4] = assay: NCI five-dose SRB growth assay; conditions: Homo sapiens; NCI/ADR-RES (Ovarian Cancer), 48 h
T-47D = assay: NCI five-dose SRB growth assay; conditions: Homo sapiens, T47D; T-47D (Breast Cancer), 48 h
MDA-MB-231/ATCC = assay: NCI five-dose SRB growth assay; conditions: Homo sapiens; MDA-MB-231/ATCC (Breast Cancer), 48 h
A498 = assay: NCI five-dose SRB growth assay; conditions: Homo sapiens; A498 (Renal Cancer), 48 h
SF-268 = assay: NCI five-dose SRB growth assay; conditions: Homo sapiens; SF-268 (CNS Cancer), 48 h
OVCAR-4 = assay: NCI five-dose SRB growth assay; conditions: Homo sapiens; OVCAR-4 (Ovarian Cancer), 48 h
MOLT-4 = assay: NCI five-dose SRB growth assay; conditions: Homo sapiens; MOLT-4 (Leukemia), 48 h
HS 578T = assay: NCI five-dose SRB growth assay; conditions: Homo sapiens; HS 578T (Breast Cancer), 48 h
K-562 = assay: NCI five-dose SRB growth assay; conditions: Homo sapiens, K562; K-562 (Leukemia), 48 h
HCT-116 [5] = assay: NCI five-dose SRB growth assay; conditions: Homo sapiens; HCT-116 (Colon Cancer), 48 h
TK-10 [6] = assay: NCI five-dose SRB growth assay; conditions: Homo sapiens; TK-10 (Renal Cancer), 48 h
SNB-75 = assay: NCI five-dose SRB growth assay; conditions: Homo sapiens; SNB-75 (CNS Cancer), 48 h

Row | SMILES | inhibition at 10 µM (HCT-116 [1]) | inhibition at 10 µM (NCI-H23) | inhibition at 10 µM (ACHN) | inhibition at 10 µM (SF-539) | inhibition at 10 µM (TK-10 [2]) | inhibition at 10 µM (SW-620) | inhibition at 10 µM (UACC-62) | inhibition at 10 µM (NCI/ADR-RES [3]) | inhibition at 10 µM (HT29) | inhibition at 10 µM (MALME-3M) | inhibition at 10 µM (DU-145) | inhibition at 10 µM (MCF7) | inhibition at 10 µM (CAKI-1) | inhibition at 10 µM (SK-MEL-28) | inhibition at 10 µM (PC-3) | inhibition at 10 µM (MDA-MB-435) | inhibition at 10 µM (PRMI-8226) | GI50 (NCI/ADR-RES [4]) | GI50 (T-47D) | GI50 (MDA-MB-231/ATCC) | further results
1 | CCn1cc(C(=O)O)c(=O)c2cc(F)c(N3CCN(S(=O)(=O)c4c(C)cc(C)cc4C)CC3)cc21 [Compound 6a] | 20.9% | 22.3% | 24.2% | 20.1% | < 10% | < 10% | 24.1% | 15.2% | < 10% | < 10% | < 10% | < 10% | 10.7% | < 10% | 38.9% | 10.9% | 35.9% |  |  |  | 
2 | O=C(O)c1cn(C2CC2)c2cc(N3CCN(S(=O)(=O)c4ccc(Cl)c(Cl)c4)CC3)c(F)cc2c1=O [Compound 3b] | 96% | 98.2% | 95% | 88.6% | 66.8% | 79.3% | 70.4% | 46.5% | 99.7% | > 100% | 82.8% | 86.5% | 96.9% | 51.5% | 83.8% | 87% | 95.1% | 4.01 µM | 3.77 µM | 2.14 µM | GI50 (A498): 2.91 µM; GI50 (SF-268): 4.77 µM; GI50 (OVCAR-4): 2.28 µM; GI50 (MOLT-4): 4 µM; GI50 (HS 578T): 4.26 µM; GI50 (K-562): 3.92 µM; GI50 (HCT-116 [5]): 3.86 µM; GI50 (TK-10 [6]): 4.31 µM
3 | O=c1[nH]cc(F)c(=O)[nH]1 [Compound 5-FU, 5-fluorouracil, reference compound] | 17.8% | 39% | 39.3% | > 100% | 66.9% | 50.1% | 39.7% | 47.6% | 27.1% | 58.2% | 35.5% | 11.5% | 39.4% |  | 58.2% | 36.6% | 41.4% |  |  |  | 
4 | CCn1cc(C(=O)O)c(=O)c2cc(F)c(N3CCN(S(=O)(=O)c4ccc(Cl)cc4Cl)CC3)cc21 [Compound 2a] | 93.6% | > 100% | > 100% | 91.4% | 87.6% | 83.7% | 83.8% | 90.7% | 98.1% | > 100% | 88.4% | 10.8% | 95.2% | < 10% | 98.4% | 87.2% | 90.9% | 3.28 µM | 3.11 µM | 1.88 µM | GI50 (A498): 2.99 µM; GI50 (SF-268): 3.86 µM; GI50 (OVCAR-4): 2.58 µM; GI50 (MOLT-4): 3.55 µM; GI50 (HS 578T): 2.53 µM; GI50 (K-562): 4 µM; GI50 (HCT-116 [5]): 3.56 µM; GI50 (TK-10 [6]): 4.02 µM
5 | Cc1cc(C)c(S(=O)(=O)N2CCN(c3cc4c(cc3F)c(=O)c(C(=O)O)cn4C3CC3)CC2)c(C)c1 [Compound 6b] | 67.8% | 42.6% | 48.7% | 53.5% | 13.5% | 20.2% | 23.4% | 30.1% | 71.7% | 40.3% | 28.6% | 46% | 32.9% | 30.9% | 32.1% | 23.9% | 77.7% | 3.29 µM | 4.81 µM | 2.03 µM | GI50 (SNB-75): 2.23 µM; GI50 (A498): 2.37 µM; GI50 (SF-268): 3.96 µM; GI50 (OVCAR-4): 2.37 µM; GI50 (HS 578T): 2.4 µM; GI50 (HCT-116 [5]): 2.98 µM; GI50 (TK-10 [6]): 4.57 µM
6 | O=C(O)c1cn(C2CC2)c2cc(N3CCN(S(=O)(=O)c4ccc(Cl)cc4Cl)CC3)c(F)cc2c1=O [Compound 2b] | 13.4% | 16.8% | 14.9% | < 10% | < 10% | < 10% | 14.6% | < 10% | < 10% | < 10% | < 10% | 82.4% | 12.1% | 49.1% | 18.9% | < 10% | 21.3% |  |  |  | 
